Blank lines part the entries; values can stand above or below the compound they belong to.
Key:
[1] = rats; cited from earlier work
[2] = Rat IV PK; format: in vivo; conditions: male, Sprague-Dawley, plasma, 1 mg/kg
[3] = Stability in rat plasma; format: in vitro ADME
[4] = Cynomolgus monkey oral PK; format: in vivo; conditions: male, plasma, 5 mg/kg
[5] = test system: TA100; assay: Bacterial reverse mutation assay; format: cell-based, Salmonella typhimurium; conditions: with and without S9 metabolic activation; 0.05 to 5.0 mg/plate
[6] = test system: aldehyde oxidase (AO); assay: Metabolism in hepatic S9 fractions; format: in vitro ADME; conditions: rat, cynomolgus monkey and human hepatic S9 fractions
[7] = test system: TA1537; assay: Bacterial reverse mutation assay; format: cell-based, Salmonella typhimurium; conditions: with and without S9 metabolic activation; 0.05 to 5.0 mg/plate
[8] = test system: WP2 uvrA; assay: Bacterial reverse mutation assay; format: cell-based, Escherichia coli; conditions: with and without S9 metabolic activation; 0.05 to 5.0 mg/plate
[9] = Stability in human cryopreserved hepatocytes
[10] = test system: TA98; assay: Bacterial reverse mutation assay; format: cell-based, Salmonella typhimurium; conditions: with and without S9 metabolic activation; 0.05 to 5.0 mg/plate
[11] = test system: TA135; assay: Bacterial reverse mutation assay; format: cell-based, Salmonella typhimurium; conditions: with and without S9 metabolic activation; 0.05 to 5.0 mg/plate

SMILES: Cc1csc(NC(=O)c2cc(F)cc(Oc3cncnc3)c2)n1 [compound 9]
Clp [1]: 43 mL/min/kg

SMILES: Cc1cccc(NC(=O)c2cc(Oc3cncnc3)cc(C)n2)n1 [compound 21, 6-Methyl-N-(6-methylpyridin-2-yl)-4-(pyrimidin-5-yloxy)picolinamide]
clearance at 24 h [2]: 34.2 mL/min/kg

SMILES: Cc1cccc(NC(=O)c2cc(Oc3cncc(F)c3)cc(C)n2)n1 [compound 22, 4-((5-Fluoropyridin-3-yl)oxy)-6-methyl-N-(6-methylpyridin-2-yl)picolinamide]
clearance at 24 h [2]: 32.5 mL/min/kg

SMILES: CCc1cccc(NC(=O)c2cc(Oc3cncnc3)cc(C)n2)n1 [compound 23, N-(6-Ethylpyridin-2-yl)-6-methyl-4-(pyrimidin-5-yloxy)picolinamide]
clearance at 24 h [2]: 43.7 mL/min/kg

SMILES: Cc1cc(Oc2cncnc2)cc(C(=O)Nc2ccc(F)cn2)n1 [compound 27, N-(5-Fluoropyridin-2-yl)-6-methyl-4-(pyrimidin-5-yloxy)picolinamide]
Tmax [4]: 3 h
bacterial reverse mutation assay TA100 [5]: negative
contribution of AO to metabolism [6]: AO contributed significantly to the metabolism
bacterial reverse mutation assay TA1537 [7]: negative
bacterial reverse mutation assay WP2 uvrA [8]: negative
half-life at 5 µM ([9]; both, cryopreserved hepatocytes (pooled, 19 donors)): > 5 h
predicted hepatic clearance (CLHEP) ([9]; predicted from hepatocytes): 3.59 mL/min/kg
bacterial reverse mutation assay TA98 [10]: negative
clearance at 24 h [2]: 19.3 mL/min/kg
bacterial reverse mutation assay TA135 [11]: negative

Further lines, results first:

stability in rat plasma [3]: instability
clearance at 24 h [2]: 96 mL/min/kg
SMILES: Cc1cc(Oc2cncc(F)c2)cc(C(=O)Nc2cccc(F)n2)n1 [compound 26, N-(6-Fluoropyridin-2-yl)-4-((5-fluoropyridin-3-yl)oxy)-6-methylpicolinamide]

Tmax [4]: 2 h
clearance at 24 h [2]: 9.2 mL/min/kg
SMILES: Cc1cc(Oc2cncc(F)c2)cc(C(=O)Nc2ccc(F)cn2)n1 [compound 28, N-(5-Fluoropyridin-2-yl)-4-((5-fluoropyridin-3-yl)oxy)-6-methylpicolinamide]

clearance at 24 h [2]: 6.2 mL/min/kg
SMILES: Cc1cc(Oc2cnc(C)nc2)cc(C(=O)Nc2ccc(F)cn2)n1 [compound 33, N-(5-Fluoropyridin-2-yl)-6-methyl-4-((2-methylpyrimidin-5-yl)oxy)picolinamide]

— article PMC5484149 (Journal of Medicinal Chemistry, 2017)
